According to paper PMC9945734 (BMC Medicine, 2023):

Assays:
RAW264.7 cells = test: RANKL-induced osteoclast differentiation, TRAP staining; format: cell-based; details: RANKL 50 ng/mL
Procedure: Three different culture systems were used for the in vitro osteoclast differentiation assay. In the first one, RAW264.7 cells were seeded onto 96-well plates at 1 × 10^3 cells/well and cultured overnight. Cells were then stimulated with recombinant mouse RANKL (Cat #: CR06, Novoprotein, Shanghai, China) at 50 ng/mL in the presence or absence of various concentrations of NTZ (0, 6.25, 12.5, 25 μM). […] Cells were then fixed in 4% paraformaldehyde for 10 min, rinsed with prewarmed deionized water, and stained with tartrate-resistant acid phosphatase (TRAP) using a kit from Sigma-Aldrich (Cat #: A387) to visualize osteoclasts (≥ 3 nuclei/cell). The effect of NTZ on osteoclast differentiation was determined by counting the number of multinucleated cells using the Image J software (Image J 1.48v).

MMP9 = MMP9 expression by western blotting and qRT-PCR; format: cell-based, human; details: KLF5^K369Q-expressing cells (PC-3-KQ)
Procedure: Total RNA was extracted from cells using the Eastep Super total RNA extraction kit (Cat #: LS1040, Promega, Shanghai, China) and quantified using the NanoDrop One (Thermo Fisher Scientific, Madison, USA). Single-strand cDNA was synthesized from 1 μg of total RNA using the HiScript III All-in-one RT SuperMix kit (Cat #: R333-01, Vazyme, Nanjing, China). For qRT-PCR, the cDNA template was mixed with the SYBR Green reagent in enzyme-free water, and the Qtower3 touch system (Analytik Jena, Jena, Germany) was used for PCR with the following program: initial denaturation at 95°C for 5 min, 40 cycles of 95°C for 30 s, 60°C for 30 s, and 72 °C for 30 s, and a final melting for 15 s. GAPDH was used as an internal control. […].
Cells in 6-well plates were washed with cold PBS and collected in a lysis buffer containing phosphatase and protease inhibitors (Cat #: P1045, Beyotime) to extract proteins. After centrifugation for 10 min at 4°C in a refrigerated centrifuge, the supernatant was collected and mixed with the 4× loading buffer, boiled in a metal heat bath at 100°C for 10 min, and then subjected to 10% SDS-PAGE. Proteins were transferred onto an activated PVDF membrane (0.45 μm pore-size, Cat #: IPVH00010, Millipore, Carrigtwohill, Ireland). […]

Structure (SMILES): CC(=O)Oc1ccccc1C(=O)Nc1ncc([N+](=O)[O-])s1 [Nitazoxanide]
- number of TRAP^+ multinucleated cells (RAW264.7 cells; 6.25 and 12.5 μM): significantly decreased
- number of TRAP^+ multinucleated cells (RAW264.7 cells; NTZ 0, 6.25, 12.5, 25 μM): decreased the number of TRAP^+ multinucleated cells in a dose-dependent manner
- MMP9 expression (protein and mRNA) (MMP9): decreased MMP9 expression in a dose-dependent manner
